Data as given in US20200230207A1, “TREATMENT OF BONE GROWTH DISORDERS” (FONDAZIONE TELETHON, priority 2015, published 2020).
Square brackets hold non-standard residues; d marks the D form. Ends that are not written are not given here. Peptide text beside a SMILES is read from it. * marks the point of attachment. Cbz = O=C(OCc1ccccc1)*

Experiments:
[1] = test system: rat model of osteoarthritis; conditions: intra articular injection; cited from earlier work
[2] = test system: primary chondrocytes isolated from GFP-LC3 mice; experiment: High content GFP-LC3 vesicle count in primary chondrocytes; assay type: cell-based, mouse; conditions: in the presence of BafA1, 25 ng/ml for 24 h
Description: (§1) FIG. 15: a, Representative images of high content imaging analysis of primary chondrocytes isolated from GFP-LC3 transgenic mice and treated with vehicle or FGF18 (25 ng /ml for 24 h). BafA1 was used where indicated for 4 h (200 nM). Green spots represent GFP labeled AVs. Scale bar 50 μm. b, Quantification of green vesicles (AVs) in cells treated with the indicated factors for 24h. Vesicles were counted in at least 1000 cells/treatment. […] Bar graphs show % of red vesicles (autolysosomes) and of total vesicles relative to vehicle (Values represent mean values±s.d. At least 10 cells/experiment were analyzed from 3 independent experiments. *p<0.05 ***p<0.0005. Student's t-test). […] Quantification of data (mean±s.e.m of n=5 mice/group. *p<0.05, Student's t-test) f, Western blot analysis of Fgf18+/+ and Fgf18+/− growth plate lysates. […]
High content screening analysis in GFP-LC3 primary chondrocytes: Primary chondrocytes were plated in CellCarrier-96 Black plates (6005558, Perkin Elmer). […] To carry out the analysis the number of cytoplasmic GFP-LC3 spots in the cytoplasm of Col2 positive cells were counted, and expressed per cell. Levels of colocalization between GFP-LC3 and Col2a1 were assessed and expressed as %, using the parameters: area of colocalization of red spots with area of green spots normalized to total area of green spots. […]

VPS34-Beclin 1 complex = experiment: Bcl2 phosphorylation, Beclin 1 co-immunoprecipitation and PI3K assay in Rx chondrocytes; assay type: cell-based, rat; conditions: 25 ng/ml
Rx chondrocytes [3] = experiment: Tandem mRFP-EGFP-LC3 autophagic flux in Rx chondrocytes; assay type: cell-based, rat; conditions: 25 ng/ml for 24 h
Description: as §1, with “cells/treatment. Values represent mean values±s.d. of n=3 independent experiments; Statistical analysis was performed using repeated measure ANOVA with TUKEYs post-hoc test. **p<0.005. c, Western blot analysis of primary chondrocytes isolated from wild type mice treated as indicated (FGF18 25 ng/ml, 24 h). Where indicated BafA1 was added (200 nM, 4h).” for “cells/treatment.”

Rx chondrocytes [4] = experiment: Procollagen (PC2) secretion and trafficking in Rx chondrocytes; assay type: cell-based, rat
Description: FIG. 6: a, b, Quantification of secreted PC2 in control and Spautin-1-treated (24 h, 50 μM) (a) and Atg7-knockdown (KD; b) RCS chondrocytes after ER block release of PC2 (min). Ctrl, control. Mean values (±standard deviation (s.d.)) of 3 independent experiments. ANOVA, P=5.29×10^−5 (a), P=0.007 (b); Sidak post-hoc test, […], ***P<0.0005. c, PC2 localization in Golgi area and ER (HSP47) in vehicle and Spautin-1-treated (24 h, 50 μM) RCS chondrocytes 10 min after the ER block release of PC2. Bar graph represents the percentage (±s.d.) of cells containing PC2 in the indicated cellular compartment. N=60; n=3 independent experiments. Student's t-test, **P<0.005. Scale bar, 10 μm. d, Immunofluorescence of PC2, Sec31 and GFP-LC3 in RCS chondrocytes. The insets show higher magnification and single colour channels of the boxed area. N, nucleus. The data are representative of 5 independent experiments. Scale bar, 5 μm. e, Spinning-disk confocal image of RCS chondrocytes co-expressing GFP-LC3- and mCherry-PC2-tagged proteins. Arrows show PC2 molecules sequestered by GFP vesicles. The data are representative of 3 independent experiments. Scale bar, 10 μm. f, Time-lapse stills of PC2 and LC3 from the boxed region in e.
The insets show a high magnification of selected areas. […] The insets show a high magnification of selected areas. Red=collagen; Blue=DAPI. Scale bar 10 μm.
FIG. 14: a a, Immunofluorescence staining of HSP47 chaperone (red) in Atg7^fl/fl and Atg7^fl/fl; Prx1-Cre chondrocytes, showing altered HSP47 distribution in Prx1-Cre; Atg7^fl/fl chondrocytes. The data are representative of 3 independent experiments. Insets show a higher magnification of the boxed area. Scale bar, 10 μm. Blue, DAPI. b, Co-localization of PC2 with HSP47 in growth-plate chondrocytes of mice with indicated genotypes. The data are representative of 3 independent experiments. Scale bar, 20 μm. c, Altered HSP47 and PC2 trafficking in Spautin-1-treated chondrocytes. HSP47 and PC2 immunostaining in control (vehicle) or Spautin-1-treated RCS chondrocytes. Synchronized PC2 secretion was obtained after incubating chondrocytes for 3 h at 40° C. to block PC2 in the ER, and then shifting the temperature to 32° C. (ER block release) for 10 min. The data are representative of 2 independent experiments. Scale bar, 10 μm. d, Proposed model of autophagy function in chondrocytes. Autophagy in chondrocytes prevents PC2 aggregation and maintains ER homeostasis during the process of PC2 secretion. e, Confocal analysis of GFP-LAMP1 (green) and mCherry-PC2 (red) in vehicle- and Spautin-1-treated chondrocytes at the indicated time points (min) after the ER block release. The insets show a high magnification of the selected area. Scale bar, 5 μm. f, Quantification of GFP-LAMP1/mCherry-PC2 co-localization. Values represent mean±s.d. from three independent experiments. N=30. […] The data are representative of 2 independent experiments. Scale bar, 10 μm.
Live cell imaging: Rx chondrocytes were reverse transfected and plated in Mattek glass bottomed dishes. Collagen transport assays were performed by incubating cells at 40° C. on the heated stage for 2.5 h. Collagen release was initiated by lowering the temperature of the stage to 32° C. and medium being supplemented with 50 μg/ml ascorbate.
Procollagen secretion assay: To follow PC2 secretion in Rx chondrocytes, cells were pretreated ON with ascorbate (100 μg/ml) in DMEM without FCS. […]

GusbKO chondrocytes = experiment: Protein degradation and mTORC1 signaling in GusbKO RCS chondrocytes with Mg132; assay type: cell-based, rat
Description: FIG. 23: G, WT and GusbKO RCS cells were pulse labelled for 18h with ^3H-Ser and chased for 48h in medium containing vehicle or 100 nM Mg-132. The rate of protein degradation is shown as the fraction of radiolabelled protein remaining over time. Values are expressed as mean (±s.e.m.) of n=3 independent experiments (Student's t-test, * p<0.05, ** p<0.005). H, Luminescent signal resulting from the cleavage of a luminescent Suc-LLVY peptide by the chymotrypsin-like activity of the proteasome was measured in WT and GusbKO RCS cells after 6h treatment with aminoacids. Data are representative of 3 independent experiments and are graphed as relative fluorescence units (RFU) (Student's t-test, * p<0.05). I, Western blot analysis of mTORC1 signaling in WT and GusbKO RCS cells treated with Mg-132 (10 μM) or DMSO (−) for 6h. Arrowheads indicate specific band. J, Bar graphs displaying quantification of relative phosphorylation. Values are expressed as mean (±s.e.m.) of n=3 independent experiments (Student's t-test, * p<0.05, ** p<0.005).

MPSVII mice [5] = experiment: Femur and tibia lengths in MPSVII mice; assay type: in vivo, mouse; conditions: 2 mg/kg i.p. daily, P15 and P30
Description: (§2) Control mice were injected with vehicle only. Mice were sacrificed after 15 (P15) and 30 (P30) days.
(§3) Skeletal staining: Skeletons were fixed in 95% ethanol overnight (ON) and stained with alcian blue and alizarin red according to standardized protocols (http://empress.har.mrc.ac.uk/browser/). Three to five mice of each genotype were analyzed per stage. Measurement of bone length was performed using ImageJ software.

MPSVII mice [6] = experiment: Growth plate histology, BrDU index and collagen in MPSVII mice; assay type: in vivo, mouse; conditions: 2 mg/kg i.p. daily, P15
MPSVI mice = experiment: Femur and tibia lengths in MPSVI mice; assay type: in vivo, mouse; conditions: 2 mg/kg i.p. daily for 15 days, P15
Description: as §2, §3

[7] = test system: FGFR3ach and FGFR3TD chondrocytes; experiment: LC3II in FGFR3 WT, FGFR3ach and FGFR3TD chondrocytes with lysosomal inhibitors; assay type: cell-based, rat; conditions: leupeptin 50 μM 2 h; bafilomycin 200 nM 4 h
Description: Bars graphs represent LC3II quantification relative to β-actin. […] Graphs show representative histograms.
Leupeptin and bafilomycin treatments: Leupeptin (Sigma) was resuspended in water at 10 mM. FGFR3 wild type, FGFR3ach and FGFR3TD stable chondrocytes cell line were treated with 50 μM leupeptin for 2 h at 37° C. Bafilomycin (Millipore) was resuspended in DMSO at 200 μM. FGFR3 wild type, FGFR3 ach and FGFR3TD stable chondrocytes cell line were treated with 200 nM bafilomycin for 4 h at 37° C.

[8] = test system: growth plate chondrocytes; experiment: LC3II in femoral growth plates after leupeptin injection; assay type: in vivo, mouse
Description: FIG. 9: a, Comparative TEM images of P0 and P6 wild type growth plate chondrocytes showing increased autophagosomes (AV) biogenesis at P6. Arrows indicate AVs. Bar graphs show number and size of AVs within 5.3 μm field of view (values represent mean±s.e.m. Student's t-test **p<0.005). b, Western blot analysis of LC3I/II of femoral growth plates from mice at indicated ages. Mice were injected with leupeptin (40 mg/kg i.p. 6h before sacrifice) where indicated. β-actin was used as loading control. Bar graphs show quantification of LC3II protein relative to β-actin (mean±s.e.m. *p<0.05 Student's t-test. n=3/group). c, Representative Western blot analysis of Atg7, LC3 and SQSTM1 (p62) proteins in Atg7 f/f, Col2a1-Cre; Atg7 f/f and Prx1-Cre; Atg7 f/f growth plate lysates. […]
FIG. 15: a, Representative images of high content imaging analysis of primary chondrocytes isolated from GFP-LC3 transgenic mice and treated with vehicle or FGF18 (25 ng /ml for 24 h). […] Scale bar 50 μm. b, Quantification of green vesicles (AVs) in cells treated with the indicated factors for 24h. Vesicles were counted in at least 1000 cells/treatment. […] Bar graphs show % of red vesicles (autolysosomes) and of total vesicles relative to vehicle (Values represent mean values±s.d. At least 10 cells/experiment were analyzed from 3 independent experiments. *p<0.05 ***p<0.0005. Student's t-test). […]

[9] = synchronized PC2 secretion, 24 h, 50 μM

FGF18: fibroblast growth factor 18 (Peprotech)
repair of damaged cartilage [1]: can stimulate the repair of damaged cartilage | AV number (autophagosome biogenesis) [2]: increase significantly | interaction of Beclin 1-Bcl2 (VPS34-Beclin 1 complex; 2h): decreased | VPS34-Beclin 1 complex activity (PI3P levels produced) (VPS34-Beclin 1 complex; 2 h, JNK dependent): increases | phosphorylation of Bcl-2 (VPS34-Beclin 1 complex; 2h, JNK-dependent): increases | autophagic flux (autolysosome number) (Rx chondrocytes [3]): enhanced | efficiency of PC2 secretion compared to non-stimulated cells (Rx chondrocytes [4]; FGF18 25 ng/ml): higher efficiency

CC(C)C[C@@H](C=O)NC(=O)[C@H](CC(C)C)NC(=O)[C@H](CC(C)C)NC(=O)OCc1ccccc1 [Mg132] (Cbz-Leu-Leu-Leu-aldehyde)
increased protein degradation rate of GusbKO chondrocytes (GusbKO chondrocytes; 100 nM, 48h chase): completely blunted | mTORC1 signaling (GusbKO chondrocytes; 10 μM, 6h): normalized

Fc1ccc(CNc2ncnc3ccc(F)cc23)cc1 [Spautin-1]
FGF18-induced increase of PC2 secretion (Rx chondrocytes [4]; Spautin-1 24h added to FGF18-stimulated cells): hampered this increase | ER to cis-Golgi trafficking of HSP47 (Rx chondrocytes [4]; cultured chondrocytes): inhibited | PC2 localization in the ER (Rx chondrocytes [4]; [9]): retention of PC2 in the ER | PC2 secretion (Rx chondrocytes [4]; [9]): defective PC2 secretion

RRRQRRKKRGYGGTGFEGDHWIEFTANFVNT ([dR][dR][dR][dQ][dR][dR][dK][dK][dR]G[dY]GG[dT]G[dF][dE]G[dD][dH][dW][dI][dE][dF][dT][dA][dN][dF][dV][dN][dT]; also: retro-inverso)
femoral and tibial growth retardation (MPSVII mice [5]): rescues | collagen levels in femoral and tibia cartilages (MPSVII mice [6]): normalizes | growth plate differentiation and proliferation defects (MPSVII mice [6]): normalizes | femoral and tibial growth retardation (MPSVI mice): rescues

bafilomycin
level of LC3II protein compared to FGFR3 wild type stable cells [7]: did not increase

CC(=O)N[C@@H](CC(C)C)C(=O)N[C@@H](CC(C)C)C(=O)N[C@H](C=O)CCCNC(=N)N [Leupeptin]
level of LC3II protein compared to FGFR3 wild type stable cells [7]: did not increase | LC3II levels in the growth plate of wild type mice ([8]; 40 mg/kg i.p. 6h before sacrifice, P2 and P6): further increased the levels of LC3II in the growth plate of P6 but not P2 mice | LC3II levels in the growth plate of control and Fgf18+/- mice ([8]; 40 mg/kg i.p. 6 h before sacrifice, P6): significantly increased LC3II levels in the growth plate of P6 control but not in Fgfl 8 mice
